The record followed here is ChEMBL document CHEMBL3769369, “Ligand-based modeling of diverse aryalkylamines yields new potent P-glycoprotein inhibitors” (Eur J Med Chem, 2016).

Data set [1] is described as follows: Cytotoxicity against human fibroblast cells assessed as viable cells at 50 uM by trypan blue staining based assay. It counts as cell-based. The note with it: read-out: Activity.
Data set [2] in a line: Inhibition of P-gp in human MCF7/D70 cells assessed as decrease in doxorubicin IC50 at 10 uM after 72 hrs by MTT assay (Rvb doxorubicin alone IC50 = 0.906 +/- 0.02 uM). In kind it is cell-based. The note with it: MCF7/D70, 72 h.
The test system of data set [3] is MCF7. The data set is described as follows: Cytotoxicity against human MCF7 cells assessed as viable cells at 50 uM by trypan blue staining based assay. It counts as functional. The note with it: read-out: Activity.
Data set [4] in a line: Inhibition of P-gp in human MCF7/D70 cells assessed as decrease in doxorubicin IC50 at 50 uM after 72 hrs by MTT assay (Rvb doxorubicin alone IC50 = 0.906 +/- 0.02 uM). It counts as cell-based. The note with it: MCF7/D70, 72 h.
Data set [5] can be described thus: Cytotoxicity against human fibroblast cells assessed as viable cells at 10 uM by trypan blue staining based assay. It counts as cell-based. The note with it: read-out: Activity.
The subject of data set [6] is MCF7. The experiment in a line: Cytotoxicity against human MCF7 cells assessed as viable cells at 10 uM by trypan blue staining based assay. It counts as functional. The note with it: read-out: Activity.
Data set [7] can be described thus: Inhibition of P-gp in human MCF7/D70 cells assessed as decrease in doxorubicin IC50 at 1 uM after 72 hrs by MTT assay (Rvb doxorubicin alone IC50 = 0.906 +/- 0.02 uM). In kind it is cell-based. The note with it: MCF7/D70, 72 h.

Regarding `COc1cc(-n2c(CCc3nc(-c4ccc(Cl)cc4)no3)n[nH]c2=S)c(OC)cc1Cl`, the viability at 50 µM was 61% in data set [1] and 71% in the data set on MCF7 [3]. Besides, the IC50 in data set [2] is 310 nM; in data set [4] it was 300 nM; in data set [7], 940 nM. The viability at 10 µM was 74% in data set [5] and 86% with MCF7 [6].
